In US9309285B2, “Macrocyclic broad spectrum antibiotics” (priority 2012, dated 2016):
Like-named read-outs stand apart in the source and are kept apart here.

Key:
[1] = test system: Escherichia coli MC4100 harboring the IMP4213; assay: MIC by broth micro-dilution (CLSI), E. coli; type: cell-based; details: E. coli MC4100 IMP4213 (increased outer-membrane permeability); cation adjusted Mueller Hinton Broth + 0.002% Tween-80; 35° C., 22 hours
Protocol: (§1) In vitro antimicrobial activity of each compound was determined by measuring minimal inhibitor concentrations (MICs) using the broth micro-dilution technique as approved by the Clinical and Laboratory Standards Institute (CLSI) (Methods for Dilution Antimicrobial Susceptibility Tests for Bacteria that Grow Aerobically; Approved Standard—Eighth Edition. CLSI document M07-A8. Wayne, Pa.: Clinical and Laboratroy Standards; 2009). Antibacterial activity was measure against two strains of bacteria: a Methicillin Resistant Staphylococcus aureus strain USA 300 (NRS384) and a strain of Escherichia coli MC4100 harboring the IMP4213, which results in increased outer-membrane permeability (B Martin and Silhavy T. Imp/OstA is required for cell envelope biogenesis in Escherichia coli. (2002) Molecular Microbiology, 45(5), 1289-1302). Cells were inoculated onto plates of Trypyticase Soy Agar or Luria Agar respectively and grown at 35° C. for 20 hours. Inocula suspensions were prepared by scraping cells into 1 ml of testing media (cation adjusted Mueller Hinton Broth supplemented with 0.002% v/v Tween-80) and diluting to a final OD600 nm of 0.01.
Test compounds were prepared in DMSO at a concentration of 10 mg/ml. […]

E. coli SPase = target: T1, E. coli SPase (Escherichia coli, UniProt P00803); assay: SPase enzyme inhibition assay, fluorogenic peptide substrate, E. coli; type: biochemical
T1 construct: Full length His-tagged E. coli and S. aureus SPase proteins were expressed in E. coli BL21; His tag; made in house; host or cells: E. coli BL21 (DE3)
Protocol: (§2) Briefly, for expression of E. coli SPase, saturated overnight cultures grown in 20 ml of Luria-Bertani medium supplemented with ampicillin were subcultures into 1.5 L of Luria-Bertani, and shaken at 37° C. until an optical density at 600 nm of 0.4-0.5 was achieved. […] S. aureus SPase was expressed and purified similarly, with the following exceptions. […] Resin bound protein was washed in a similar buffer containing 1% Elugent in place of Triton X-100 prior to protein elution in wash buffer supplemented with 300 mM imidazole. […] All protein concentrations were determined by BCA assay.
(§3) Enzyme master solution was prepared by diluting Escherichia coli or Staphylococcus aureus SPase protein into reaction buffer to a final concentration of 3 nM or 10 nM respectively. Reaction buffer consisted of 20 mM NaKHPO4 pH 7.4, 100 mM NaCl, and 1% v/v Elugent™ detergent. Reactions were initiated by the addition of substrate to a final concentration of 20 μM. Reaction progress was monitored by measuring the increase in fluorescence signal (excitation at 314 nm, emission at 416 nm) using a SpectraMax M2 fluorescence microplate reader. […] Three-folder serial dilutions of test compounds, starting at 10 μM, were prepared in enzyme mix solution and incubated at room temperature for 10 minutes. Following this incubation, fluorogenic substrate was added to a final concentration of 20 μM and the increase in fluorescence, corresponding to substrate cleavage, was monitored continuously at room temperature for 1 hour. Initial reaction rates were calculated based on the rate of increase in fluorescence during the reaction. Reaction rates were plotted as a function of compound concentration, and IC50 values were determined nonlinear regression analysis (SoftMaxPro 5.4, Molecular Devices™) of the sigmoidal dose-response curve.

[2] = test system: Methicillin Resistant Staphylococcus aureus strain USA 300 (NRS384); assay: MIC by broth micro-dilution (CLSI), S. aureus; type: cell-based; details: MRSA USA 300 (NRS384), cation adjusted Mueller Hinton Broth + 0.002% Tween-80, 35° C., 22 hours; for MIC: Staphylococcus aureus, MRSA / NRS 384 / USA300, read-out: MIC (μg/mL) S. aureus
Protocol: as §1
Test compounds were prepared in DMSO at a concentration of 10 mg/ml. These compound stocks were diluted into testing media at a concentration of 64 μg/ml and serial 2-fold dilutions were made in the same media, in 96-well U bottom microtiter dishes, for a total of 10 compound concentrations. Inocula suspensions were added to the 2-fold serial dilutions of test compounds to a final density of OD OD600 nm of 0.0005 and incubated at 35° C. for 22 hours.

S. aureus SPase = target: T2, S. aureus SPase (Staphylococcus aureus, UniProt P0A070); assay: SPase enzyme inhibition assay, fluorogenic peptide substrate, S. aureus; type: biochemical
T2 construct: Full length His-tagged E. coli and S. aureus SPase proteins were expressed in E. coli BL21; His tag; made in house; host or cells: E. coli BL21 (DE3)
T2 sequence (P0A070 1-191): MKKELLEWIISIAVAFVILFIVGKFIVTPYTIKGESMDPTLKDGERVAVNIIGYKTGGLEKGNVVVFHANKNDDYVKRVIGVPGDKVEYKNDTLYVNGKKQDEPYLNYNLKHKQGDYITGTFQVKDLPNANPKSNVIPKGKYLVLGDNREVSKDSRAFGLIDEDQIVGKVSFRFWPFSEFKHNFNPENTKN
Protocol: as §2, §3

[3] = 3 nM E. coli SPase, 20 μM substrate, 10 minutes pre-incubation, room temperature, read-out: IC 50 (nM) E. coli
[4] = read-out: IC 50 (nM) S. aureus, 10 nM S. aureus SPase, 20 μM substrate, 10 minutes pre-incubation, room temperature

T1 sequence (P00803 whole entry): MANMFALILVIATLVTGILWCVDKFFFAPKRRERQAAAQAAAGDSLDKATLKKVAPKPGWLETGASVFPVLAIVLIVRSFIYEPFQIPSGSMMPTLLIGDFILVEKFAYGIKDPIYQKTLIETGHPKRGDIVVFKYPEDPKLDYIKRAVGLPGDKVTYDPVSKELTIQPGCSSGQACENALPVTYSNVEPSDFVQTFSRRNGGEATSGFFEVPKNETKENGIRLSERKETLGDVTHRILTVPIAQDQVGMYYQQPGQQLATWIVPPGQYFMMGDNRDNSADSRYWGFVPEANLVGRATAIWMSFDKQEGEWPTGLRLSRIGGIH

SMILES	MIC (μg/mL) E. coli [1] [µg/mL]	IC50 (E. coli SPase; [3]) [nM]	MIC (μg/mL) S. aureus [2] [µg/mL]	IC50 (S. aureus SPase; 10 nM S. aureus SPase, 20 μM substrate, 10 minutes pre-incubation, room temperature, read-out: IC 50 (nM) S. aureus) [nM]	MIC [2] [µg/mL]	IC50 (S. aureus SPase) [nM]	IC50 (E. coli SPase) [nM]	IC50 (S. aureus SPase; [4]) [nM]
CCCCc1ccc(-c2ccc(C(=O)NCC(C)C(=O)N[C@@H](CCN)C(=O)N(C)[C@@H]3C(=O)N[C@@H](C)C(=O)N[C@H](C(=O)O)Cc4ccc(O)c(c4)-c4cc3ccc4O)cc2)cc1 (single isomer, unassigned) [Compound 115]	>64	630	64	1900				
CCCCc1ccc(-c2ccc(C(=O)NC[C@@H](C)C(=O)N[C@@H](CCCCN)C(=O)N(C)[C@@H]3C(=O)N[C@@H](C)C(=O)N[C@H](C(=O)O)Cc4ccc(O)c(c4)-c4cc3ccc4O)cc2)cc1 [Compound 103]		1.3			2.1	8		
CCCCCCCCCCCCCC(=O)NCCC(=O)N[C@@H](CCCCN)C(=O)N(C)[C@@H]1C(=O)N[C@@H](C)C(=O)N[C@H](C(=O)O)Cc2ccc(O)c(c2)-c2cc1ccc2O [Compound 105]		1.3			0.63	16		
CCCCc1ccc(-c2ccc(C(=O)NC(C)CC(=O)N[C@@H](CCCCN)C(=O)N(C)[C@@H]3C(=O)N[C@@H](C)C(=O)N[C@H](C(=O)O)Cc4ccc(O)c(c4)-c4cc3ccc4O)cc2)cc1 (stereo partly shown) [Compound 106]		2.9			2	8.8		
CCCCc1ccc(-c2ccc(C(=O)N[C@@H](C)CC(=O)N[C@@H](CCCCN)C(=O)N(C)[C@@H]3C(=O)N[C@@H](C)C(=O)N[C@H](C(=O)O)Cc4ccc(O)c(c4)-c4cc3ccc4O)cc2)cc1 [Compound 107]		0.6			11	2.6		
CCCCc1ccc(-c2ccc(C(=O)NCC(=O)N[C@@H](CCCCN)C(=O)N(C)[C@@H]3C(=O)N[C@@H](C)C(=O)N[C@H](C(=O)O)Cc4ccc(O)c(c4)-c4cc3ccc4O)cc2)cc1 [Compound 108]		2.4			8	110		
CCCCc1ccc(-c2ccc(C(=O)NC[C@@H](N)C(=O)N[C@@H](CCCCN)C(=O)N(C)[C@@H]3C(=O)N[C@@H](C)C(=O)N[C@H](C(=O)O)Cc4ccc(O)c(c4)-c4cc3ccc4O)cc2)cc1 [Compound 109]		11			> 64	15		
CCCCc1ccc(-c2ccc(C(=O)NCCC(=O)N(C)[C@@H]3C(=O)N[C@@H](C)C(=O)N[C@H](C(=O)O)Cc4ccc(O)c(c4)-c4cc3ccc4O)cc2)cc1 [Compound 112]		850			> 64	7200		
CCCCc1ccc(-c2ccc(C(=O)NCC(C)C(=O)N[C@@H](CCCN)C(=O)N(C)[C@@H]3C(=O)N[C@@H](C)C(=O)N[C@H](C(=O)O)Cc4ccc(O)c(c4)-c4cc3ccc4O)cc2)cc1 (stereo partly shown) [Compound 113]		3.6			4	69		
CCCCc1ccc(-c2ccc(C(=O)N(C)[C@@H]3C(=O)N[C@@H](C)C(=O)N[C@H](C(=O)O)Cc4ccc(O)c(c4)-c4cc3ccc4O)cc2)cc1 [Compound 116]		> 10000			> 64	> 10000		
CCCCc1ccc(-c2ccc(C(=O)N[C@@H](CCCCN)C(=O)NCCC(=O)N(C)[C@@H]3C(=O)N[C@@H](C)C(=O)N[C@H](C(=O)O)Cc4ccc(O)c(c4)-c4cc3ccc4O)cc2)cc1 [Compound 117]		760			> 64	3900		
CCCCc1ccc(-c2ccc(C(=O)N[C@@H](CCCCN)C(=O)N(C)[C@@H]3C(=O)N[C@@H](C)C(=O)N[C@H](C(=O)N[C@@H](C)B4O[C@@H]5C[C@@H]6C[C@@H](C6(C)C)[C@]5(C)O4)Cc4ccc(O)c(c4)-c4cc3ccc4O)cc2)cc1 [Compound 121]		29			0.71	110		
CCCCCCCC(=O)NCCC(=O)N[C@@H](CCCCN)C(=O)N(C)[C@@H]1C(=O)N[C@@H](C)C(=O)N[C@H](C(=O)N[C@@H](C)B2O[C@@H]3C[C@@H]4C[C@@H](C4(C)C)[C@]3(C)O2)Cc2ccc(O)c(c2)-c2cc1ccc2O [Compound 123]		20			64	18		
CCCCCCCC(=O)N[C@@H](CCCCN)C(=O)N(C)[C@@H]1C(=O)N[C@@H](C)C(=O)N[C@H](C(=O)N[C@@H](C)B2O[C@@H]3C[C@@H]4C[C@@H](C4(C)C)[C@]3(C)O2)Cc2ccc(O)c(c2)-c2cc1ccc2O [Compound 125]		26			23	64		
CCCCCCCC(=O)N[C@@H](CCCCN)C(=O)N(C)[C@@H]1C(=O)N[C@@H](C)C(=O)N[C@H](C(=O)NCB2O[C@@H]3C[C@@H]4C[C@@H](C4(C)C)[C@]3(C)O2)Cc2ccc(O)c(c2)-c2cc1ccc2O [Compound 126]					32	130	13	
C[C@@H]1NC(=O)[C@@H](N(C)C(=O)[C@H](CCCCN)NC(=O)c2ccc(-c3ccc(Cl)cc3)cc2)c2ccc(O)c(c2)-c2cc(ccc2O)C[C@@H](C(=O)N[C@@H](C)C(=O)N2CCC[C@H]2C(N)=O)NC1=O [Compound 132]					6.1	5.9	26	
C[C@@H]1NC(=O)[C@@H](N(C)C(=O)[C@H](CCCCN)NC(=O)c2ccc(-c3ccc(Cl)cc3)cc2)c2ccc(O)c(c2)-c2cc(ccc2O)C[C@@H](C(=O)N[C@@H](C)C=O)NC1=O [Compound 134]		0.8			10	8.2		
CCCCc1ccc(-c2ccc(C(=O)N[C@@H](CCCCN)C(=O)N[C@H]3COCCCCC[C@@H](C(=O)N[C@@H](C)B4OC5C[C@@H]6C[C@@H](C6(C)C)[C@]5(C)O4)NC(=O)[C@H](C)NC3=O)cc2)cc1 (stereo partly shown) [Compound 204]		25			1.4			250
CCCCc1ccc(-c2ccc(C(=O)N[C@@H](CCCCN)C(=O)N[C@H]3COCCCCC[C@@H](C(=O)N[C@@H](C)B(O)O)NC(=O)[C@H](C)NC3=O)cc2)cc1 [Compound 205]		30			2.8			280
CCCCc1ccc(-c2ccc(C(=O)N[C@@H](CCCCN)C(=O)N[C@H]3COCCCCOCC[C@@H](C(=O)N[C@@H](C)B4O[C@@H]5C[C@@H]6C[C@@H](C6(C)C)[C@]5(C)O4)NC(=O)[C@H](C)NC3=O)cc2)cc1 [Compound 207]		21			1.3	210		
CCCCc1ccc(-c2ccc(C(=O)N[C@@H](CCCCN)C(=O)N(C)[C@@H]3C(=O)N[C@@H](C)C(=O)N[C@H](C(=O)N[C@@H](C)B4O[C@@H]5C[C@@H]6C[C@@H](C6(C)C)[C@]5(C)O4)CCCCc4cc3ccc4OC)cc2)cc1 [Compound 209]					4	3700	84	
